Laboratory results taken from US12245589B2, “Omega-alicyclic tunicamycins and analogs” (priority 2022, dated 2025).
“Also recorded” adds a separate entry of the source.

Assays:
[1] = test system: Mycobacterium tuberculosis (Mtb); conditions: compared with natural tunicamycin; cited from earlier work
[2] = test system: Mycobacterium avium subsp. paratuberculosis (MAP) strain K-10; assay: Antibiotic disc assay on agar plates, MAP strain K-10; conditions: antibiotic discs on the plate for 13 days, FIG. 15C
[3] = test system: Mycobacterium smegmatis biofilm; assay: Microtiter plate bioassay, biofilm formation (MBFC); type: cell-based; conditions: M. smegmatis grown in TYG for 6 days at 37° C., FIG. 16
Procedure: (§1) In each plate, left two columns are treated with DMSO, center two columns are treated with tunicamycin; right two panels are treated with TunR2. The concentration in μg/mL is indicated on the right. Arrows show the concentration at which there is mycobacterial growth inhibition (MIC), or biofilm formation is blocked (MBFC).
(§2) Tunicamycins are known to inhibit the biosynthesis of bacterial cell wall, for example by blocking the peptidoglycan and teichoic layers. The Mycobacterium genus is characterized by unusual and complex cell walls composed of three distinct layers, peptidoglycan (PG), arabinogalactan (AG) and mycolic acids (MA), which are well characterized targets for antimycobacterial drugs (K A Abrahams & G S Besra, 2018, “Mycobacterial cell wall biosynthesis: a multifaceted antibiotic target,” Parasitology 145: 116-133). The MA and AG are also components of mycobacterial biofilms, an extracellular matrix with various pathogenic functions.

[4] = test system: cultured mammalian cell lines (HEK293, HepG2, Raji cells); conditions: cell line not given; cited from earlier work
Mycobacterium smegmatis = assay: Microtiter plate bioassay, mycobacterial growth inhibition (MIC); type: cell-based; conditions: M. smegmatis grown in TYG for 6 days at 37° C., FIG. 16
Procedure: as §1
The inventors have shown that tunicamycins (including the modified TunR1, TunR2, and OAT-type tunicamycins) have potent antimycobacterial activity (for example, MIC 0.5 μg·mL^−1 for TunR2 against M. smegmatis, as shown in FIG. 16.
as §2

CCCCCCCCC(=O)N[C@H]1[C@H](O[C@H]2O[C@H](CO)[C@@H](O)[C@H](O)[C@H]2NC(=O)CCCCCCCC)O[C@H](C[C@@H](O)[C@H]2O[C@@H](n3ccc(=O)[nH]c3=O)[C@H](O)[C@@H]2O)[C@H](O)[C@@H]1O [Tun-9,9]
potency relative to natural tunicamycin against Mtb [1]: 5 times

CC1(C)S[C@@H]2[C@H](NC(=O)C(C(=O)O)c3ccccc3)C(=O)N2[C@H]1C(=O)O (stereo partly shown) [carbenicillin]
activity on MAP strain K-10 [2]: resistant | activity on MAP strain K-10 ([2]; listed as Carbenicillin): low inhibitions at high concentrations

CC(C)CCOc1ccc(NC(=S)Nc2ccc(OCCC(C)C)cc2)cc1 [thiocarlide]
activity on MAP strain K-10 [2]: resistant

tunicamycin
Minimal Biofilm Formation Concentration, MBFC [3]: 1 µg/mL | activity on MAP strain K-10 [2]: perform well | LD50 [4]: > 400 µg/mL | MIC (mycobacterial growth inhibition) (Mycobacterium smegmatis): 2 µg/mL

CO/N=C(\C(=O)N[C@@H]1C(=O)N2C(C(=O)[O-])=C(C[n+]3cccc4c3CCCC4)CS[C@H]12)c1csc(N)n1 [cefquinome]
activity on MAP strain K-10 [2]: resistant; also recorded: low inhibitions at high concentrations

CCCCCCCCC1=C(CCCCCCCC(=O)O)C1 [sterulic acid]
activity on MAP strain K-10 [2]: resistant
